Measurements from patent US20060252670A1, “Method of reducing drug-induced adverse side effects in a patient” (Intercept Pharmaceuticals Inc., priority 2004, published 2006).
Where two headings read alike, the source gives them in different places. Values belong to the molecule of their own block, whether it stands above or below them.

Experiments:
[1] = tested on: primary cultures of rat HSCs; test: PPARγ expression in primary cultures of rat HSCs with FXR ligands (qRT-PCR, Western blot); assay type: cell-based
Experimental: However, whether or not FXR interacts with PPARγ, has so far been unknown. In order to investigate if FXR interacts with PPARγ, in vitro studies were performed on primary cultures of rat HSCs and HSC-T6 (i.e., a rat immortalised HSCs line). Primary rat HSCs were isolated from control and cirrhotic rats according to techniques known in the art. […] Cells were cultured at 37° C. in an atmosphere of 5% CO2 in Dulbecco's modified minimal essential medium (Gibco BRL Life Technologies, Rockville, Md.) containing 10% fetal calf serum (FCS), 2 mM L-glutamine, and 5,000 IU/ml penicillin/[…] streptomycin. […] HSCs were incubated with or without 6-ECDCA, 1 μM, for 24 hours at 37° C. in DMEM. […] The proteins were then transferred to nitrocellulose membranes (Biorad, Hercules, Calif.) and probed with primary antibodies to FXR and PPARγ (Santa Cruz Biotechnology, Santa Cruz, Calif.).
PPARγ expression normally decreases during HSC trans-differentiation. […] To further investigate whether ligands of FXR and PPARγ might cooperate in repressing α1 (1) collagen gene expression, HSC-T6 were exposed to effective concentrations of the two ligands.

liver fibrosis = test: Gene expression in three rat models of liver fibrosis (porcine serum, BDL, CCl4) treated with FXR ligand; assay type: in vivo; details: rats, 3 mg/kg
Experimental: In order to further investigate whether in vivo administration of FXR ligands would modulate the expression of PPARγ, three different models of liver fibrosis were used, i.e., porcine serum administration, bile duct ligation (BDL), and CCL4 intoxication. Male Wistar rats (200-250 g) were obtained from Charles River Breeding Laboratories (Monza, Italy) and maintained on standard laboratory rat chow on a 12 hour light/dark cycle. […] (2004) Gastroenterology 14:1444-1356). […] At the end of the study, rats were sacrificed under anaesthesia with sodium pentobarbital (50 mg/kg, i.p.) and terminally bled via cardiac puncture. The liver was removed for examination and blood samples were taken. In the second model, hepatic fibrosis was induced by bile duct ligation (BDL) of 8-9 weeks old male Wistar rats (see Fiorucci et al. (2004) Gastroenterology 14:1444-1356 and Fiorucci et al. (2004) Hepatology 39:365-75). Sham operated rats (n=6) received the same laparoscopic procedure, except that the bile duct was manipulated, but not ligated and sectioned. A total of 24 animals were operated. […] Animals were then treated for 14 days. […] Control rats were injected i.p. with 100 μl/100 g body weight of paraffin oil alone.

[2] = tested on: liver fibrosis induced by porcine serum; test: Liver fibrosis induced by 8-week porcine serum administration to rats: 6-ECDCA, rosiglitazone and combination; assay type: in vivo, rat; details: for ALP / ALT / Bilirubin / Liver/b.w.: porcine serum rats, 8 weeks, mean ± SE
Experimental: To investigate whether 6-ECDCA was effective in regulating PPARγ expression, porcine serum-administered rats (6-8 each group) were randomized to receive 1 and 3 mg/kg 6-ECDCA via gavage 5 times a week. Control rats were administered 3% carboxy-methyl cellulose (CMC) by gavage. At the end of the study, rats were sacrificed under anaesthesia with sodium pentobarbital (50 mg/kg, i.p.) and terminally bled via cardiac puncture. The liver was removed for examination and blood samples were taken.
Groups and duration of treatment are described in Table 1 below. Animals were followed for 8 weeks.
Collagen surface density was quantified using a computerized image analysis system (Image Acquisition System Ver. 005, Delta Sistemi, Rome, Italy) (see Fiorucci et al., supra). Hepatic and urinary content of hydroxyproline were determined by HPLC (LC Varian Prostar HPLC, Varian, Rome, Italy) as described in Fiorucci et al. (supra). The ANOVA followed by Dunnett or Bonferroni correction for multiple comparison were applied when appropriate during statistical analysis. EC50 were calculated using Prism III (Graphpad Software. Inc., San Diego, Calif.).

[3] = cited from earlier work
[4] = Type II diabetic obese patient switched from rosiglitazone to 6ECDCA plus rosiglitazone; assay type: in vivo, human; details: rosiglitazone 8 mg daily 4 weeks then 4 mg daily 6 weeks by mouth
Experimental: The patient is started on a combination of 6ECDCA (150 mg) and rosiglitizone (2 mg) daily by mouth.

- ALP ([2]; oral 1 mg/kg (each drug)): 26.6 ± 2.5 U/dl
- Bilirubin ([2]; oral 1 mg/kg (each drug)): 0.3 ± 0.01 mg/dL
- ALP ([2]; oral 3 mg/kg (each drug)): 21.8 ± 5.2 U/dl
- Bilirubin ([2]; oral 3 mg/kg (each drug)): 0.2 ± 0.01 mg/dL
Compound: CC[C@H]1[C@@H](O)[C@@H]2[C@H](CC[C@]3(C)[C@@H]([C@H](C)CCC(=O)O)CC[C@@H]23)[C@@]2(C)CC[C@@H](O)C[C@@H]12 [6-ECDCA]
- increase in PPARγ mRNA and protein ([1]; primary HSCs grown seven days, 1 μM): 40 fold
- increase of FXR mRNA (liver fibrosis): 1.8 fold
- increase of SHP mRNA (liver fibrosis): 4 fold
- expression of selected pro-fibrogenetic markers (α-SMA, fibronectin, TGFP1) ([2]; 1 mg/kg): reduced
- histological score and liver hydroxyproline content ([2]; 1 mg/kg, in comparison to porcine serum alone): slightly reduced
- protection against development of liver fibrosis ([2]; 3 mg/kg): effectively protected
- increase of liver PPARγ mRNA ([2]; 3 mg/kg alone): 3-4 fold
- increase of hepatic expression of UCP-2 ([2]; 3 mg/kg, P<0.05 versus control and porcine serum alone): 2-4 fold
- liver function as measured by plasma ALT, alkaline phosphatase and bilirubin ([2]; 1 and 3 mg/kg, P>0.05 versus control and porcine serum-treated rats): did not affect liver function
- ALT ([2]; oral 1 mg/kg (each drug)): 47.4 ± 2.4 U/L
- Liver/b.w. ([2]; oral 1 mg/kg (each drug)): 3.8 ± 0.3%
- ALT ([2]; oral 3 mg/kg (each drug)): 41.9 ± 5.3 U/L
- Liver/b.w. ([2]; oral 3 mg/kg (each drug)): 2.9 ± 0.2%

Compound: CC(C)c1onc(-c2c(Cl)cccc2Cl)c1COc1ccc(/C=C/c2cccc(C(=O)O)c2)c(Cl)c1 [GW4064, reference compound]
- downregulation of PPAR-γ caused by HSCs activation ([1]; primary HSCs): prevented the downregulation

Compound: CCc1ccc(CCOc2ccc(CC3SC(=O)NC3=O)cc2)nc1 (centres unmarked) [pioglitazone]
- combined incidence of edema ([3]; 15 or 30 mg/day in combination with insulin (Rubin et al. 1999)): 15.3%

- edema [4]: signs of increasing peripheral edema
- weight gained since initiating TZD therapy [4]: 6 kg
Compound: CN(CCOc1ccc(CC2SC(=O)NC2=O)cc1)c1ccccn1 (centres unmarked) [rosiglitazone]
- incidence of edema ([3]; 4 mg/day in combination with insulin (Raskin et al. 2001)): 13.1%
- incidence of edema ([3]; 8 mg/day in combination with insulin (Raskin et al. 2001)): about 16.2%
